Test results from patent US20220000872A1, “METHOD OF ENHANCING IMMUNE-BASED THERAPY” (OncoTracker, Inc., priority 2018, published 2022).
Entries after “also recorded” stand apart in the source; their conditions may differ.

Columns and labels:
[1] = system: CD138+ myeloma tumor cells; assay: Annexin V apoptosis assay of CD138-selected primary myeloma cells co-cultured with IL-2-stimulated T-cells; format: cell-based, human; conditions: CD138+ cells with IL-2-stimulated SUP-T1 T cells; 72 hours; RUX at varying concentrations; rose from approximately 35% up to this value, concentration dependent
Method: FIG. 10A depicts an apoptosis assay of fresh CD138-selected myeloma tumor cells combined with IL-2-stimulated T-cells (SUP-T1, ATCC) and treated with ruxolitinib (RUX) in vitro. T-cells were pre-treated with IL-2 (20 ng/ml) for 24 hours. Primary myeloma cells were CD138-selected using an immunoadsorption column and co-cultured with T cells with or without RUX at varying concentrations for 72 hours. Apoptosis in CD138+ cells was measured using the Annexin V assay per the manufacturer's protocol (Biovision) followed with flow cytometric analysis (FC-500 cytometer using Cytometrics CXP software, both Beckman Coulter). Minimal apoptosis was observed without T cells. Apoptosis occurred in a much higher proportion of myeloma tumor cells exposed to IL-2-stimulated T cells (FIG. 10A). RUX increased the fraction of cells that underwent apoptosis from approximately 35% up to about 65% in a concentration dependent fashion.

[2] = system: PD-L2 gene and protein expression; assay: PD-L2 gene and protein expression in MM tumor cells alone or co-cultured with stromal cells (Example 11); format: cell-based, human; conditions: concentration dependent pattern
Method: BM mononuclear cells (MCs) and serum were collected from MM patients and healthy subjects after obtaining IRB approval. Single-cell suspensions were prepared from human MM LAGκ-1A xenografts which had been grown in the mice. The cells were cultured and treated with or without RUX and then were determined by qPCR, flow cytometric analysis, ELISA, and western blot.
We further investigated the effects of RUX on PD-L1 and PD-L2 expression in primary and stromal cells from MM patients' BM samples in vitro. […] We then determined whether RUX can augment the anti-MM effects of T-cells in vitro. […] To evaluate the efficacy of drugs in vivo, severe combined immune deficient mice implanted with the human MM xenograft LAGκ-2 were treated with RUX (30 mg/kg).

PD-L1 gene expression [3] = assay: PD-L1 gene expression in BMMCs from MM patient #2188 co-cultured with HS-5 stromal cells or THP-1 monocytes; format: cell-based, human; conditions: RUX 1 μM, 48 hours
Method: We also examined the effects of RUX on PD-L1 gene expression in MM tumor cells co-cultured with stromal cells or monocytes in vitro. BMMCs from MM patient #2188 were co-cultured with stromal cells from the HS-5 cell line (ATCC, CRL-11882) with or without RUX (1 μM) treatment. After 48 hours of co-culture, PD-L1 gene expression was increased in both BMMCs (FIG. 5A) and stromal cells (FIG. 5B) from the co-culture of both cell types compared with its expression in those cell types cultured alone. The increased PD-L1 levels were reduced in the presence of RUX (1 μM) in both cell populations after 48 hours of culture. Similarly, PD-L1 gene expression was increased in both BMMCs and monocytes (THP-1 cells) after co-culture compared with cells cultured alone (FIG. 5C and FIG. 5D) and reduced following exposure to RUX (1 μM).
FIG. 5A depicts relative PD-L1 gene expression in BMMCs from patient #2188 cultured with stromal cells (ATCC, HS-5) with RUX (1 μM) or without for 48 hours. BM, bone marrow cells alone; BM+1 μM, BMMCs treated with 1 μM RUX; BM/BM+S−0 μM, BMMCs with stromal cells without RUX; BM/BM+S+1 μM, BMMCs with stromal cells and 1 μM RUX.
FIG. 5B depicts relative PD-L1 gene expression in stromal cells (ATCC, HS-5) co-cultured with BMMCs from patient #2188 on Transwell inserts with (1 μM) or without RUX for 48 hours. Stroma cells (S) alone; stromal cells+1 μM, stromal cells treated with RUX (1 μM); S/BM+S−0 μM, BMMCs with stromal cells without RUX; S/BM+S−1 μM, BMMCs with stromal cells with RUX at 1 μM.
FIG. 5C depicts relative PD-L1 gene expression in BMMCs from patient #2188 co-cultured with THP-1 monocytes treated with (1 μM) or without RUX for 48 hours. BM, BMMCs alone; BM+1 μM, BMMCs treated with 1 μM RUX; BM/BM+T−0 μM, BMMCs with THP-1 monocytes without RUX; BM/BM+T+1 μM, BMMCs with THP-1 monocytes treated with RUX 1 μM.
FIG. 5D depicts relative PD-L1 gene expression in THP-1 monocytes co-cultured with BMMCs from patient #2188 on Transwell inserts with (1 μM) or without RUX for 48 hours. THP-1 only, THP-1 cells alone; THP-1+1 μM, THP-1 cells treated with 1 μM RUX; T/BM+T−0 μM, MM BMMCs with THP-1 cells without RUX; T/BM+T−1 μM, BMMCs with THP-1 monocytes with RUX (1 μM).

IL-2 gene expression = IL-2 gene expression (qPCR) in BMMCs from three MM patients; format: cell-based, human; conditions: RUX 1 μM, 24 hours
Method: BMMCs from three MM patients were treated with RUX (1 μM) for 24 hours with or without co-culture with T cells in vitro. IL-2 gene expression levels were determined using qPCR RUX induced IL-2 expression in BMMCs alone and those co-cultured with T cells (SUP-T1, ATCC) in Trans-well culture dishes.

PD-L1 gene expression [4] = assay: PD-L1 gene expression (qPCR) in MM BMMCs co-cultured with THP-1 monocytes; format: cell-based, human; conditions: BMMCs from MM patient #3041 co-cultured with THP-1 monocytes, RUX 1 μM, 48 hours
Method: MM patient #3041 bone marrow mononuclear cells were co-cultured with THP-1 monocytes with or without RUX (from […] to 10 μM) for 48 hours.
Next, we investigated the effects of ruxolitinib (RUX) on PD-L1 and PD-L2 gene expression in MM bone marrow mononuclear cells (BMMCs) co-cultured with THP-1 monocytes. THP-1 monocytes co-cultured with primary BMMCs from MM patient #3041 were grown in the presence or absence of RUX (1 μM).

multiple myeloma = conditions: combined with a thalidomide derivative such as lenalidomide and optionally a steroid or glucocorticoid; cited from earlier work

With `N#CC[C@H](C1CCCC1)n1cc(-c2ncnc3[nH]ccc23)cn1` [RUX, ruxolitinib] the “fraction of cells that underwent apoptosis” value [1] was “about 65%”, the “PD-L2 gene and protein expression in MM tumor cells” value [2] was “markedly reduced” and the “PD-L1 gene expression in stromal cells co-cultured with BMMCs” value (PD-L1 gene expression [3]; HS-5 with patient #2188 BMMCs) was “reduced”. The “PD-L1 gene expression in monocytes (THP-1 cells) co-cultured with BMMCs” value (PD-L1 gene expression [3]; THP-1 with patient #2188 BMMCs) was “reduced”, the “PD-L1 gene expression in BMMCs co-cultured with stromal cells” value (PD-L1 gene expression [3]; patient #2188 BMMCs with HS-5) was “reduced” and the “PD-L1 gene expression in BMMCs co-cultured with monocytes” value (PD-L1 gene expression [3]; patient #2188 BMMCs with THP-1) was “reduced”. For the same molecule, the “IL-2 expression in BMMCs alone” value (IL-2 gene expression) was “induced; also recorded: increased”, the “IL-2 expression in BMMCs co-cultured with T cells” value (IL-2 gene expression; SUP-T1 in Trans-well dishes) was “induced” and the “PD-L1 gene expression in MM BMMCs” value (PD-L1 gene expression [4]) was “marked decrease; also recorded: inhibits”. The “efficacy in treating hematological malignancies (in particular, multiple myeloma)” value (multiple myeloma) was “effective”.
